Results on 20 compounds are retold here after ChEMBL document CHEMBL1132083, “Switching androgen receptor antagonists to agonists by modifying C-ring substituents on piperidino[3,2-g]quinolinone” (Bioorg Med Chem Lett, 1999).

The target in assay [1] is T1, Androgen receptor (Homo sapiens, UniProt P10275).
T1 sequence (P10275 whole entry): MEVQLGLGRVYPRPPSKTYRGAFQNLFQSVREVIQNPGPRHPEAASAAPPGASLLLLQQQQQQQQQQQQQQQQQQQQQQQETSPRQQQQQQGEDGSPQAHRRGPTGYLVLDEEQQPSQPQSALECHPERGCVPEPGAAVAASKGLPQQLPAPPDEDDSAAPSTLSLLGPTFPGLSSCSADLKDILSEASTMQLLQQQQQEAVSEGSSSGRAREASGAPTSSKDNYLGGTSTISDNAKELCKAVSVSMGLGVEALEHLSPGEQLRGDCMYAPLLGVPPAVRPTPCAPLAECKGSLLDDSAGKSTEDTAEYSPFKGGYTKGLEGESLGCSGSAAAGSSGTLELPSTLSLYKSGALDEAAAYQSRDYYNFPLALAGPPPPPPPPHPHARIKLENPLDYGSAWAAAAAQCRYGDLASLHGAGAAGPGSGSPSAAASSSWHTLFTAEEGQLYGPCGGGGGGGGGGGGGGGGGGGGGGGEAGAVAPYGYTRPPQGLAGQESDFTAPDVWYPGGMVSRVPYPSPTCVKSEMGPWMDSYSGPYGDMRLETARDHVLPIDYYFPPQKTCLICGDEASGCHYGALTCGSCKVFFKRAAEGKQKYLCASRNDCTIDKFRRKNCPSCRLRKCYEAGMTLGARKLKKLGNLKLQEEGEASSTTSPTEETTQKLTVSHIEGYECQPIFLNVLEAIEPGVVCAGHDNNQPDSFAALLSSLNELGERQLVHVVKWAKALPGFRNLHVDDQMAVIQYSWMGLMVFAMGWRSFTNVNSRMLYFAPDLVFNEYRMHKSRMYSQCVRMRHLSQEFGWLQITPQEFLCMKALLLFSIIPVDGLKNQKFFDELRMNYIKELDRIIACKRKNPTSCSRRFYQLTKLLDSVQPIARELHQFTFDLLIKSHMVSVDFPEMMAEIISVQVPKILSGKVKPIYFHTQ
Description: (§1) Antagonistic activity against human androgen receptor (hAR) expressed in CV-1 cell lines

In assay [2] the target is T1, Androgen receptor. The source holds these as a separate data set.
Description: Binding affinity towards human androgen receptor (hAR), using dihydrotestosterone as radioligand for competitive binding assay
In assay [3] the target is T1, Androgen receptor. To be noted: cv-1.
Description: (§2) Agonistic activity against human androgen receptor (hAR) expressed in CV-1 cell lines
Assay [4] addresses T1, Androgen receptor. This is another data set of the same source.
Description: as §2
For assay [5], the target named is T1, Androgen receptor. The conditions noted are these: cv-1. This is another data set of the same source.
Description: as §1
In assay [6] the target is T1, Androgen receptor. The assay can be described thus: Antagonistic activity against human androgen receptor (hAR) expressed in CV-1 cells; no data. Type of assay: functional, cell-based.
Assay [7] deals with T2, Androgen receptor (Homo sapiens) (UniProt P10275).
T2 sequence (whole entry): T1 sequence (P10275 whole entry)
Kind of assay: Antagonistic activity against human androgen receptor (hAR); no data. It is filed as functional.

What is called IC50 is the concentration that inhibits the measured activity by half. Read a high IC50 as lower potency. By Ki is commonly meant a measure of affinity in units of concentration, obtained from inhibition or displacement. Read a high Ki as a looser hold on the target. As a reminder, the EC50 is the concentration that produces a half-maximal response.

In turn, `CC[C@H]1Nc2cc3[nH]c(=O)cc(C(F)(F)F)c3cc2CC1(C)C` returned an IC50 at Androgen receptor [1] of 42 nM. This compound also gave a Ki at Androgen receptor [2] of 50 nM. This compound also gave an EC50 at Androgen receptor [3] of less than 10000 nM.

Take `CC(C)(O)C(=O)Nc1ccc([N+](=O)[O-])c(C(F)(F)F)c1O`: at Androgen receptor [1], half-maximal inhibition (IC50) required 15 nM. Further, the Ki at Androgen receptor [2] came to 27 nM. Also, the EC50 on Androgen receptor [3] is less than 10000 nM.

On to `C[C@@H]1CCc2cc3c(C(F)(F)F)cc(=O)[nH]c3cc2N1`, for which inhibition on Androgen receptor [1] was half-maximal at 19 nM (IC50). The compound further came in with an EC50 at Androgen receptor [4] of 21 nM. Further, at Androgen receptor [2], the Ki turned out to be 7 nM.

`CCC[C@@H]1CCc2cc3c(C(F)(F)F)cc(O)nc3cc2N1` came in with an IC50 at Androgen receptor [1] of 32 nM. The affinity on Androgen receptor [2] corresponds to a Ki of 24 nM. Also, the EC50 on Androgen receptor [3] is less than 10000 nM.

Turning to `CC[C@H]1Cc2cc3c(C(F)(F)F)cc(O)nc3cc2N[C@@H]1C`, at Androgen receptor [4], a half-maximal response (EC50) required 9 nM. The compound also registered a Ki at Androgen receptor [2] of 11 nM. For the same compound, at Androgen receptor [5], the IC50 was less than 10000 nM.

Regarding `C[C@H]1Nc2cc3nc(O)cc(C(F)(F)F)c3cc2CC1(C)C`, the IC50 at Androgen receptor [1] stood at 24 nM. Moreover, the Ki at Androgen receptor [2] was determined as 82 nM. On Androgen receptor [3], this compound displayed an EC50 of less than 10000 nM.

Take `CC[C@H]1C[C@@H](C)Nc2cc3nc(O)cc(C(F)(F)F)c3cc21`: at Androgen receptor [6], the IC50 was less than 10000 nM. Besides, in assay [7], the Efficacy was less than 20%. This compound yielded an EC50 at Androgen receptor [4] of 66 nM. Further, the Ki at Androgen receptor [2] was found to be 23 nM.

On Androgen receptor [4], `CC[C@@H]1Cc2cc3c(C(F)(F)F)cc(=O)[nH]c3cc2N[C@@H]1C` gave an EC50 of 10 nM. The affinity on Androgen receptor [2], expressed as Ki, was 15 nM. The same compound displayed an IC50 against Androgen receptor [5] of less than 10000 nM.

`CC(C)[C@@H]1CCc2cc3c(C(F)(F)F)cc(=O)[nH]c3cc2N1` displayed an IC50 against Androgen receptor [1] of 25 nM. Besides, the Ki on Androgen receptor [2] was found to be 109 nM. This compound registered an EC50 on Androgen receptor [3] of less than 10000 nM.

Compound `CC[C@H]1Nc2cc3nc(O)cc(C(F)(F)F)c3cc2CC1(CC)CC` yielded an IC50 against Androgen receptor [1] of 48 nM. This compound also came in with an inhibitory constant (Ki) on Androgen receptor [2] of 42 nM. This compound had an EC50 at Androgen receptor [3] of less than 10000 nM.

For `CC[C@H]1Nc2cc3[nH]c(=O)cc(C(F)(F)F)c3cc2C[C@@H]1C`, 11 nM corresponded to half-maximal inhibition against Androgen receptor [1] (IC50). At Androgen receptor [4], this compound returned an EC50 of 1670 nM. The Ki at Androgen receptor [2] stood at 12 nM.

For the compound `CC[C@@H]1C[C@H](CC)c2cc3c(C(F)(F)F)cc(O)nc3cc2N1`, the IC50 at Androgen receptor [6] was less than 10000 nM. The Efficacy in assay [7] was less than 20%. The same compound came in with an EC50 at Androgen receptor [4] of 32 nM. Also, the Ki at Androgen receptor [2] was determined as 9 nM.

On Androgen receptor [1], `CC[C@@H]1C[C@H](C)c2cc3c(C(F)(F)F)cc(O)nc3cc2N1` displayed an IC50 of 137 nM. Further, at Androgen receptor [4], a half-maximal response (EC50) required 119 nM. The compound also displayed a Ki at Androgen receptor [2] of 21 nM.

Turning to `C[C@H]1Cc2cc3c(C(F)(F)F)cc(O)nc3cc2N[C@@H]1C`, half-maximal inhibition on Androgen receptor [1] (IC50) required 33 nM. On Androgen receptor [2], this compound had a Ki of 22 nM. Moreover, the EC50 at Androgen receptor [3] was less than 10000 nM.

As for `C[C@@H]1C[C@H](C)c2cc3c(C(F)(F)F)cc(O)nc3cc2N1`, at Androgen receptor [1], the midpoint of inhibition, the IC50, lay at 15 nM. This compound came in with an EC50 on Androgen receptor [4] of 59 nM. The same compound came in with a Ki on Androgen receptor [2] of 6 nM.

The compound `CC[C@H]1Cc2cc3c(C(F)(F)F)cc(=O)[nH]c3cc2N[C@@H]1CC` came in with an EC50 at Androgen receptor [4] of 3 nM. For the same compound, the affinity on Androgen receptor [2], expressed as Ki, was 16 nM. Moreover, on Androgen receptor [5], the half-inhibitory concentration (IC50) was less than 10000 nM.

As to `CC[C@@H]1Cc2cc3c(C(F)(F)F)cc(=O)[nH]c3cc2N[C@@H]1CC`, at Androgen receptor [4], the response was half-maximal at 20 nM (EC50). At Androgen receptor [2], this compound registered a Ki of 29 nM. Moreover, the IC50 at Androgen receptor [5] was less than 10000 nM.

On Androgen receptor [1], `CC[C@@H]1CCc2cc3c(C(F)(F)F)cc(O)nc3cc2N1` came in with an IC50 of 11 nM. For the same compound, the EC50 at Androgen receptor [3] was less than 10000 nM.

Regarding `CC[C@H]1Nc2cc3nc(O)cc(C(F)(F)F)c3cc2C[C@H]1C`, at Androgen receptor [1], half-maximal inhibition (IC50) required 15 nM. For the same compound, at Androgen receptor [4], the EC50 was determined as 2470 nM. For the same compound, the Ki at Androgen receptor [2] was 11 nM.

As for `C[C@@H]1Cc2cc3c(C(F)(F)F)cc(O)nc3cc2N[C@@H]1C`, the IC50 against Androgen receptor [1] turned out to be 74 nM. The compound further registered an EC50 on Androgen receptor [4] of 34 nM. Further, the Ki at Androgen receptor [2] is 15 nM.
